{
  "source": "patent US6207656A",
  "about": "“Vitamin D analogues and their neuronal effects” (Cephalon, Inc., priority 1998, dated 2001)",
  "key": {"GDNF mRNA": {"system": "GDNF mRNA", "test": "Induction of GDNF mRNA expression in primates", "assay_type": "in vivo, monkey", "procedure": "(§1) Twelve monkeys, ranging in weight from 2.0 Kg to 4.7 Kg, were divided into three groups of 4 animals each: the vehicle group (i.e., control), group dosed with 10 μg/kg/day, and group dosed with 30 μg/kg/clay. The monkeys were dosed orally for 8 days with Compound (A) and were sacrificed 5 hours after the last dosing. Brain regions were dissected and quick frozen. The dissected septi were divided into 3 preparations and two of the three regions of septum were analyzed. Total RNA was prepared and reverse transcribed and gene expression was assessed using polymerase chain reaction by the following procedure.\n(§2) Total RNA was prepared by homogenizing sections of tissue in 750 μl RNAzolB™ (Biotecx Laboratories, Houston, Tex.) using a homogenizer (Tekmar, Germany) until fully homogenized and then 250 μl RNAzilB™ was added. RNA was prepared as recommended by the manufacturer (Biotecx Laboratories). […] Concentration of RNA was measured spectrophotometrically and the quality of RNA was visualized on a nondenaturing agarose gel. […]\n(§3) An average of 4 PCR assays (two assays for each gene for two cDNA sets) were used in determining the induction of mRNA expression. To assure that PCR assays were within the linear range of the reaction, the linear range for each gene and each cDNA preparation was determined using serial dilutions of cDNAs. […]"}, "NGF mRNA": {"system": "NGF mRNA", "test": "Induction of NGF mRNA expression in primates", "assay_type": "in vivo, monkey", "procedure": "as §1, §2, §3"}, "NT-3 mRNA": {"system": "NT-3 mRNA", "test": "Induction of NT-3 mRNA expression in rats", "assay_type": "in vivo, Sprague Dawley rats", "details": "0.3, 1.0 and 3.0 μg/kg oral, 8 days; hippocampus (FIG. 1)", "procedure": "Young adult male Sprague Dawley rats (250-350 g) were administered Compound (A), Compound (E), or a vehicle (80% propylene glycol (human formulation grade; Spectrum Quality Products, Inc., Gardena, Calif., catalog #PR130-55003) and 20% phosphate buffer, pH 9.2) at doses ranging from 0.1 to 5.5 μg/kg daily by oral gavage for eight days. Five hours after the last dose, the animals were sacrificed by decapitation. Each brain was quickly removed and chilled in ice-cold saline. The brain was cut into 2 mm thick coronal sections. Portions of the hippocampus, encompassing the CA1 region, and the medial septum were removed by punching 2 mm^3 sections using a calibrated tissue punch. Punched sections were immediately frozen on dry ice and then stored at -70° C. RNA was prepared from dissected tissue pieces.\nPunches of tissue were homogenized in […] RNAzolB™ (Bioteex Laboratories, Houston, Tex.) using a homogenizer (Tekmar, Germany) until fully homogenized and then 250 μl RNAzilB™ was added. Typically, punches from the corresponding regions of brains of 2 to 3 animals were combined together. RNA was prepared as recommended by the manufacturer (Biotecx Laboratories). […] Concentration of RNA was measured spectrophotometrically and the quality of RNA was visualized on a nondenaturing agarose gel. […]"}},
  "data": [
    {"compound": "C=C1/C(=C\\C=C2/CCC[C@]3(C)[C@@H]([C@@H](C)[C@@H](C#CCC(O)(CC)CC)OCC)CC[C@@H]23)C[C@@H](O)C[C@@H]1O", "note": "[Compound (A), 1(S),3(R)-dihydroxy-20(R)-(1-ethoxy-5-ethyl-5-hydroxy-2-heptyn-1-yl)-9,10-seco-pregna-5(Z),7(E),10(19)-triene]", "values": [
      {"measurement": "production of GDNF mRNA", "setting": "GDNF mRNA; 10 and 30 μg/kg/day oral, 8 days, primate septum (FIG. 14B)", "value": "facilitated the production of NGF mRNA and GDNF mRNA"},
      {"measurement": "dosage of greatest GDNF mRNA production", "setting": "GDNF mRNA; 10 vs 30 μg/kg/day oral", "value": "greatest at a dosage of 10 μg/kg/day"},
      {"measurement": "production of NGF mRNA", "setting": "NGF mRNA; 10 and 30 μg/kg/day oral, 8 days, primate septum (FIG. 14A)", "value": "facilitated the production of NGF mRNA"},
      {"measurement": "dosage of greatest NGF mRNA production", "setting": "NGF mRNA; 10 vs 30 μg/kg/day oral", "value": "greatest at a dosage of 10 μg/kg/day"},
      {"measurement": "production of NT-3 mRNA", "setting": "NT-3 mRNA", "value": "facilitated the production of NRT-like mRNA, GDNF mRNA, NT-3 mRNA"}
    ]}
  ]
}
